In article PMC3171608 (Bioorganic & medicinal chemistry, 2011):

What was measured:
[1] = tested on: other kinesin family members; conditions: cited from earlier work
[2] = target: mammalian centromere-associated kinesin (MCAK) (Homo sapiens, UniProt Q99661); assay: Kinesin ATPase selectivity panel, MCAK; assay type: biochemical; conditions: panel of mitotic kinesins; data not shown
[3] = target: T1, centromeric protein E (CENP-E) (Homo sapiens, UniProt Q02224); assay: Kinesin ATPase selectivity panel, CENP-E; assay type: biochemical; conditions: panel of mitotic kinesins; data not shown
T1 sequence (Q02224 6-329 limits assumed): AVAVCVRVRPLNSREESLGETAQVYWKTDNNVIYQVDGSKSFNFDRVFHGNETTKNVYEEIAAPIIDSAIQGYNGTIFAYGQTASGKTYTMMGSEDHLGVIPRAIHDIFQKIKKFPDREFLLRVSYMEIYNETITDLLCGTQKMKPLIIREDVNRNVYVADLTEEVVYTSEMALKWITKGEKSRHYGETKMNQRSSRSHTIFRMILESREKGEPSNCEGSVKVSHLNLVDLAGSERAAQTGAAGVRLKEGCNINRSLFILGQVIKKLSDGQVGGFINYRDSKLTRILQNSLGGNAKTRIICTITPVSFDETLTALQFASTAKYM

HeLa cells = assay: Phenotypic assay in cultured HeLa cells; assay type: cell-based, human; conditions: 1 μM compound
NCI60 tumor panel = NCI60 tumor panel growth inhibition; conditions: for GI50: read-out: Average GI50 in leukemia and colon tumor cell lines
chromokinesin = conditions: panel of mitotic kinesins; data not shown
M14 = assay: NCI60 growth inhibition, M14; assay type: cell-based; conditions: melanoma M14, GI50

mammalian centromere-associated kinesin (MCAK), sequence (Q99661 258-588 limits assumed): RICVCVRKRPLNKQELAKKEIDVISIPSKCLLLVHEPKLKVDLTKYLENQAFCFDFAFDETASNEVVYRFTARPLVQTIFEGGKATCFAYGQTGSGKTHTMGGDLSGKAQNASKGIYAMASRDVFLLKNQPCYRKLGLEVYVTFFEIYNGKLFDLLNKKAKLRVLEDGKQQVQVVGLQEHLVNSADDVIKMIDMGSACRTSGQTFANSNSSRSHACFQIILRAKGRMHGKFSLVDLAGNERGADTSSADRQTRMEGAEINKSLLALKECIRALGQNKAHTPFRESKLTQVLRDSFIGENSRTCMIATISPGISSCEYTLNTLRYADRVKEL

Structure (SMILES)	Activity against other kinesin family members [1]	Inhibitory activity against MCAK [2]	Inhibitory activity against CENP-E [3]	Interphase microtubule morphology (HeLa cells)	GI50 (NCI60 tumor panel) [nM]	Inhibitory activity against chromokinesin (chromokinesin)	Average fold increase in potency over 1 (NCI60 tumor panel; NCI60 panel GI50) [fold]	Average fold increase in potency over Monastrol (NCI60 tumor panel; NCI60 panel GI50) [fold]	Fold increase in activity over monastrol (M14) [fold]
N[C@@H](CSC(c1ccccc1)(c1ccccc1)c1ccccc1)C(=O)O [Compound 1, S-trityl-L-cysteine]	no activity	–	–	–	–	–	–	–	–
N[C@H](CO)CSC(c1ccccc1)(c1ccccc1)c1ccccc1 [Compound 4, (R)-2-amino-3-(tritylthio)propan-1-ol]	–	no measurable inhibition detected	no measurable inhibition detected	normal	–	–	–	–	–
COc1ccc(C(SC[C@H](N)CO)(c2ccccc2)c2ccccc2)cc1 [Compound 5, (R)-2-amino-3-((4-methoxyphenyl)diphenylmethylthio)propan-1-ol]	–	no measurable inhibition detected	no measurable inhibition detected	normal	≤ 230	no measurable inhibition detected	–	–	–
COc1ccc(C(SCCN)(c2ccccc2)c2ccccc2)cc1 [Compound 7]	–	–	–	normal	≤ 230	–	~35	~143	1200
